Assay results as given in doi:10.1101/2022.01.03.474871v1 (biorxiv, 2022).

Assays:
[1] = molecular target: T1, RpfC (full-length, in liposomes) (Xanthomonas campestris, UniProt P0C0F7); experiment: […] autophosphorylation assay, RpfC liposomes; assay type: biochemical; settings: activation of autokinase; 100 µM ATP, pH 7.8, 5 mM MgCl2, 28 °C
[2] = molecular target: T1, RpfC (full-length, in liposomes); experiment: label-free microscale thermophoresis, RpfC liposomes; assay type: binding; settings: 50 mM Tris-HCl pH 7.8, 150 mM NaCl, 10 mM MgCl2, 0.1% Pluronic F-127

T1 sequence (P0C0F7 whole entry): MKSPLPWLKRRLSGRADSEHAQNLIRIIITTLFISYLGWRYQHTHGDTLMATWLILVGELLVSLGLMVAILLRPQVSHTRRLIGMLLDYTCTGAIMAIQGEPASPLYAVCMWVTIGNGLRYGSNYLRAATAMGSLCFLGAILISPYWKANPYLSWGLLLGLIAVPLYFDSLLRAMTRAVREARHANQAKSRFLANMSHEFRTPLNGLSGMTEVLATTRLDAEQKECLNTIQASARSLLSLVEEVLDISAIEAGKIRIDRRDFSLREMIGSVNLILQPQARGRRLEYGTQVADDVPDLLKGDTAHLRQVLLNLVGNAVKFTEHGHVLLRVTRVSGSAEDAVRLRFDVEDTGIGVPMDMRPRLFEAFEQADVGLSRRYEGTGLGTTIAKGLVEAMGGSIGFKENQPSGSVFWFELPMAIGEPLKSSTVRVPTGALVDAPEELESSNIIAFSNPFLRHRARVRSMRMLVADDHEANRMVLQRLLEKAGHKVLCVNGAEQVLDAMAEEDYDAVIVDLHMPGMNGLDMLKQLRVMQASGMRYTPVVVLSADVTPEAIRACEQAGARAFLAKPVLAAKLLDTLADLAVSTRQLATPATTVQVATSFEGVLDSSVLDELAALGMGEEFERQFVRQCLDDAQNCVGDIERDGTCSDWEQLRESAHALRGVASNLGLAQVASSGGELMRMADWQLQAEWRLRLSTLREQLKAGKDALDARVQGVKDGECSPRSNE

| SMILES | EC50 [1] | Kd [2] |
| --- | --- | --- |
| CCCCCCCCC/C=C\C(=O)O [BDSF, cis-2-dodecenoic acid] | ~0.06 µM |  |
| CCCCCCCCC/C=C/C(=O)O [trans-BDSF] | 1.11 µM | 11.2 ± 0.95 µM |
